Experimental findings from US20240336608A1, “IL4I1 INHIBITORS AND METHODS OF USE” (Merck Sharp & Dohme LLC, priority 2023, published 2024) are described below.

Usually EC50 stands for the concentration giving half of the maximal effect.

This test deals with T1, recombinant IL4I1 (Homo sapiens, UniProt Q96RQ9).
T1 construct: purchased R&D Systems 5684-AO-020
T1 sequence (Q96RQ9 22-567): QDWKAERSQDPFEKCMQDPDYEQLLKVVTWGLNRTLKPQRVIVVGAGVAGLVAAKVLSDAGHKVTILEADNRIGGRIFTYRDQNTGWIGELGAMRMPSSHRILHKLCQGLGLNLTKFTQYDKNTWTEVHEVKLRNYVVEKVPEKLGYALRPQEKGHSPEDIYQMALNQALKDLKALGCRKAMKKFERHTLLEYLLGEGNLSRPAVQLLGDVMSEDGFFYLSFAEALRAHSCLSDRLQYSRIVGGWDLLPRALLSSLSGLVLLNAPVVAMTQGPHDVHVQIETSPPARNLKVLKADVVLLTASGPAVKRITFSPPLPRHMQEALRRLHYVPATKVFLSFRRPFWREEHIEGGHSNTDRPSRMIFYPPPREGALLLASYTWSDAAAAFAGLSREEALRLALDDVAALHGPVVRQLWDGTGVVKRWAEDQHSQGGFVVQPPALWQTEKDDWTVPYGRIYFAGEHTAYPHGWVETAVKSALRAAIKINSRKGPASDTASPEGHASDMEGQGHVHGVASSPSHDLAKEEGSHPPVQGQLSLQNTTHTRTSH
The experiment in a line: IL4I1 Enzymatic Assay (Amplex Red/HRP coupled detection of H2O2, fluorescence). Type of test: biochemical. The conditions noted are these: 1 nM recombinant IL4I1; four-hour pre-incubation with compound; 1 mM each Phe, Tyr, Trp; ten-point titration. Here is the method:
Interleukin 4 inducible protein 1 (IL4I1) is an L-amino oxidase that catalyzes the oxidation of aromatic residues (Phe, Trp and Tyr): L-amino acid+H2O+O2→2-oxo acid+NH3+H2O2. Equal molar of H2O2 and the corresponding alpha-ketoacid are produced when IL4I1 and substrate are added. In this assay, the hydrogen peroxide generated by IL4I1 is then detected through a coupled reaction with Amplex Red (10-acetyl-3,7-dihydroxyphenoxazine) and […] (HRP) to produce Resorufin product that could be detected in the form of fluorescence signals. The assessment of the inhibitory effect of small molecules (EC50) on IL4I1 is measured by the effectiveness of the compounds to inhibit the production of H202.
Using this assay, the potency (EC50) of each compound was determined from a ten-point (1:3 serial dilution) titration curve using the following outlined procedure. To each well of a black flat-bottom Greiner (Cat #781076) 384 well-plate, 125 nL of compound (0.5% DMSO in final assay volume of 25 μL) was dispensed, followed by the addition of 12.5 μL of 1× assay buffer (50 mM Hepes 7.0 and 0.005% Tween20 (Sigma, Cat #P8341; low peroxide grade)) containing 2 nM of recombinant IL4I1 (R&D Systems, Cat #5684-AO-020). Plates were placed in an ambient temperature humidified chamber for a four-hour pre-incubation with compound. Subsequently, each reaction was initiated by the addition of 12.5 μL 1× assay buffer containing 2 mM of each aromatic amino acids (Phe/Tyr/Trp), 0.1 mM Amplex Red and 2 U/mL of HRP. The final reaction in each well of 25 μL consists of 1 nM of IL4I1, 1 mM of each residue (Phe, Tyr and Trp), 0.05 mM Amplex Red and 1 U/mL of HRP. It should be noted that the concentrations of Amplex Red and HRP used here are in excess such that the conversion of H2O2 to Resorufin product occurs instantaneously and non-rate limiting. Reactions were allowed to proceed for 120 minutes followed by fluorescence readout on a Spectramax with the following set parameters: 544 nm excitation/590 nm emission, 570 nm cutoff (EnVision is an alternative reader). Dose-response curves were generated by plotting percent effect (% inhibition; Y-axis) vs. Log10 compound concentrations (X-axis). EC50 values were calculated using a non-linear regression, four-parameters sigmoidal dose-response model and are shown in Table 16.

`CC(CC(F)(F)F)n1cc(C(=O)NCc2nnc(-c3ccccc3)s2)nn1` (single isomer, unassigned) [Example 63, N-((5-phenyl-1,3,4-thiadiazol-2-yl)methyl)-1-(4,4,4-trifluorobutan-2-yl)-1H-1,2,3-triazole-4-carboxamide]: the concentration for a half-maximal effect (EC50) was determined as 18 nM.
With `CC(CC(F)(F)F)n1cc(C(=O)NCc2nnc(-c3ccccc3)s2)nn1` (single isomer, unassigned) [Example 64, N-((5-phenyl-1,3,4-thiadiazol-2-yl)methyl)-1-(4,4,4-trifluorobutan-2-yl)-1H-1,2,3-triazole-4-carboxamide] the figure was 93 nM; with `O=C(NCc1nnc(-c2ccccc2)s1)c1cn(C2CC2(F)F)nn1` (single isomer, unassigned) [Example 130, 1-(2,2-difluorocyclopropyl)-N-((5-phenyl-1,3,4-thiadiazol-2-yl)methyl)-1H-1,2,3-triazole-4-carboxamide], 5 nM.
With `O=C(NCc1nnc(-c2ccccc2)s1)c1cn(C2CC2(F)F)nn1` (single isomer, unassigned) [Example 131, 1-(2,2-difluorocyclopropyl)-N-((5-phenyl-1,3,4-thiadiazol-2-yl)methyl)-1H-1,2,3-triazole-4-carboxamide], the half-maximal effective concentration (EC50) was 54 nM.
Next, `CC1CC1n1cc(C(=O)NCc2nnc(-c3ccccc3)s2)nn1` (single isomer, unassigned) [Example 132, Cis-1-(2-methylcyclopropyl)-N-((5-phenyl-1,3,4-thiadiazol-2-yl)methyl)-1H-1,2,3-triazole-4-carboxamide]: 7 nM; `CC1CC1n1cc(C(=O)NCc2nnc(-c3ccccc3)s2)nn1` (single isomer, unassigned) [Example 133, Cis-1-(2-methylcyclopropyl)-N-((5-phenyl-1,3,4-thiadiazol-2-yl)methyl)-1H-1,2,3-triazole-4-carboxamide]: 92 nM.
As to `O=C(NCc1nnc(-c2ccccc2)s1)c1cn(CC(O)C(F)F)nn1` (single isomer, unassigned) [Example 138, 1-(3,3-difluoro-2-hydroxypropyl)-N-((5-phenyl-1,3,4-thiadiazol-2-yl)methyl)-1H-1,2,3-triazole-4-carboxamide], the 50% effective concentration (EC50) was 25 nM.
With `O=C(NCc1nnc(-c2ccccc2)s1)c1cn(CC(O)C(F)F)nn1` (single isomer, unassigned) [Example 139, 1-(3,3-difluoro-2-hydroxypropyl)-N-((5-phenyl-1,3,4-thiadiazol-2-yl)methyl)-1H-1,2,3-triazole-4-carboxamide], the EC50 was 123 nM.
With `O=C(NCc1nnc(-c2ccccc2)s1)c1cn([C@@H]2C[C@H]2CO)nn1` (single isomer, unassigned) [Example 141, Trans-1-(2-(hydroxymethyl)cyclopropyl)-N-((5-phenyl-1,3,4-thiadiazol-2-yl)methyl)-1H-1,2,3-triazole-4-carboxamide] the figure was 5 nM; with `O=C(NCc1nnc(-c2ccccc2)s1)c1cn([C@@H]2C[C@H]2CO)nn1` (single isomer, unassigned) [Example 142, Trans-1-(2-(hydroxymethyl)cyclopropyl)-N-((5-phenyl-1,3,4-thiadiazol-2-yl)methyl)-1H-1,2,3-triazole-4-carboxamide], 33 nM; with `O=C(NCc1nnc(-c2ccccc2)s1)c1cn(C2C[C@@H]2C(F)F)nn1` (single isomer, unassigned) [Example 143, Trans-1-(-2-(difluoromethyl)cyclopropyl]-N-[(5-phenyl-1,3,4-thiadiazol-2-yl)methyl]-1H-1,2,3-triazole-4-carboxamide], 179 nM.
Consider `O=C(NCc1nnc(-c2ccccc2)s1)c1cn(C2C[C@@H]2C(F)F)nn1` (single isomer, unassigned) [Example 144, Trans-1-(-2-(difluoromethyl)cyclopropyl]-N-[(5-phenyl-1,3,4-thiadiazol-2-yl)methyl]-1H-1,2,3-triazole-4-carboxamide], for which the concentration for a half-maximal effect (EC50) was determined as 383 nM.
With `O=C(NCc1nnc(-c2ccccc2)s1)c1cn([C@@H]2C[C@@H]2C(F)F)nn1` (single isomer, unassigned) [Example 145, cis-1-(-2-(difluoromethyl)cyclopropyl]-N-[(5-phenyl-1,3,4-thiadiazol-2-yl)methyl]-1H-1,2,3-triazole-4-carboxamide] the figure was 5 nM; with `O=C(NCc1nnc(-c2ccccc2)s1)c1cn([C@@H]2C[C@@H]2C(F)F)nn1` (single isomer, unassigned) [Example 146, cis-1-(-2-(difluoromethyl)cyclopropyl]-N-[(5-phenyl-1,3,4-thiadiazol-2-yl)methyl]-1H-1,2,3-triazole-4-carboxamide], 244 nM.
With `CC(NC(=O)c1cn(C2CC2)nn1)c1nnc(-c2ccccc2)s1` (single isomer, unassigned) [Example 244, 1-cyclopropyl-N-(1-(5-phenyl-1,3,4-thiadiazol-2-yl)ethyl)-1H-1,2,3-triazole-4-carboxamide] the figure was 587 nM.
Consider `CC(NC(=O)c1cn(C2CC2)nn1)c1nnc(-c2ccccc2)s1` (single isomer, unassigned) [Example 245, 1-cyclopropyl-N-(1-(5-phenyl-1,3,4-thiadiazol-2-yl)ethyl)-1H-1,2,3-triazole-4-carboxamide], for which the concentration for a half-maximal effect (EC50) is 23 nM.
For the molecule `CC(NC(=O)c1cn(CC(F)F)nn1)c1nnc(-c2ccccc2)s1` (single isomer, unassigned) [Example 251, 1-(2,2-difluoroethyl)-N-(1-(5-phenyl-1,3,4-thiadiazol-2-yl)ethyl)-1H-1,2,3-triazole-4-carboxamide], the EC50 was determined as 84 nM.
Next, `CC(NC(=O)c1cn(CC(F)F)nn1)c1nnc(-c2ccccc2)s1` (single isomer, unassigned) [Example 252, 1-(2,2-difluoroethyl)-N-(1-(5-phenyl-1,3,4-thiadiazol-2-yl)ethyl)-1H-1,2,3-triazole-4-carboxamide]: 15 nM; `CC(NC(=O)c1cn(C)nn1)c1nnc(-c2ccccc2)s1` (single isomer, unassigned) [Example 258, 1-methyl-N-(1-(5-phenyl-1,3,4-thiadiazol-2-yl)ethyl)-1H-1,2,3-triazole-4-carboxamide]: 492 nM; `CC(NC(=O)c1cn(C)nn1)c1nnc(-c2ccccc2)s1` (single isomer, unassigned) [Example 259, 1-methyl-N-(1-(5-phenyl-1,3,4-thiadiazol-2-yl)ethyl)-1H-1,2,3-triazole-4-carboxamide]: 26 nM.
Next, `Cc1ccc(-n2cc(C(=O)NC(C)c3nnc(-c4ccccc4)s3)nn2)c(C)n1` (single isomer, unassigned) [Example 262, 1-(2,6-dimethylpyridin-3-yl)-N-(1-(5-phenyl-1,3,4-thiadiazol-2-yl)ethyl)-1H-1,2,3-triazole-4-carboxamide]: 85 nM; `Cc1ccc(-n2cc(C(=O)NC(C)c3nnc(-c4ccccc4)s3)nn2)c(C)n1` (single isomer, unassigned) [Example 263, 1-(2,6-dimethylpyridin-3-yl)-N-(1-(5-phenyl-1,3,4-thiadiazol-2-yl)ethyl)-1H-1,2,3-triazole-4-carboxamide]: 33 nM.
Regarding `CC(C#N)n1cc(C(=O)NCc2cc(-c3ccncc3)on2)nn1` (single isomer, unassigned) [Example 275, 1-(1-cyanoethyl)-N-((5-(pyridin-4-yl)isoxazol-3-yl)methyl)-1H-1,2,3-triazole-4-carboxamide], the concentration for a half-maximal effect (EC50) is 25 nM.
